Reference: publication PMC11927960, “Multiparameter ranking of carbazoles for anti-trypanosome lead discovery” (Frontiers in drug discovery, 2024)

How the values were obtained:
[1] = Caco-2 bidirectional permeability assay; assay type: in vitro ADME; settings: human
Protocol: Caco-2 bidirectional permeability assay.
Caco-2 bidirectional permeability assay was performed at Absorption Systems (Exton, Pennsylvania). Briefly, monolayers of Caco-2 cells (clone C2BBe1) were grown to confluence on collagen-coated, microporous membranes in 12-well plates. Permeability assay buffer (Hanks’ balanced salt solution containing 10 mM HEPES and 15 mM glucose, pH 7.4) in the receiver chamber contained 1% bovine serum albumin. Compounds dissolved in assay buffer (5 μM) were added either on the apical (A) or the basolateral side (B) and incubated at 37 °C with 5% CO2 in a humidified incubator. Samples were collected from donor and receiver chambers at 120 min. Each determination was performed in duplicate. The flux of lucifer yellow dye was measured post-experimentally for each monolayer to ensure that no monolayers were damaged during the flux period with compounds. Drug amounts were determined by LC-MS/MS. Apparent permeability (Papp) and percent recovery were determined as per [Hubatsch et al. (2007)]. The efflux ratio was calculated as Papp (B-to-A)/Papp (A-to-B).

[2] = tested on: DNA synthesis in Trypanosoma brucei; experiment: DNA synthesis (EdU incorporation); assay type: cell-based; settings: for Effect on EdU incorporation into nuclei (DNA synthesis): DTC25 (CBL0174 48 nM, CBL0187 54 nM), vs DMSO, p < 0.0001; for DNA Synthesis affected: DTC25, Table S3
Protocol: Incorporated EdU was tracked by clicking with azide-Alexa Fluor-488 and observed with a fluorescence microscope. For quantitation, at least 100 cells were analyzed from each sample. (A) Representative images of the EdU-positive signal (green) with DAPI (blue) in 0.1% DMSO (top), CBL0174-treated (middle), or CBL0187-treated cells (bottom). (B) Representative images for quantitation of nuclear EdU brightness (nEdU). CellProfiler 3.1.9 was used to extract the EdU fluorescence signal over the DAPI area. Lines represent the median with error bars denoting standard deviation (SD) from three biological replicates. The statistical significance of the distribution of EdU brightness in different treatment groups was analyzed with a Mann–Whitney test.
Bloodstream trypanosomes (5 × 10^5 cells/mL) pretreated with DTC25 concentrations of CBL0174 or CBL0187 in HMI-9 medium (for 15 min) were incubated with 5-ethynyl-2′-deoxyuridine (EdU) (Abcam) (300 μM) for 1 h. Cells were prepared as per [Sullenberger et al. (2017)]. Images of trypanosomes were captured using a DeltaVision II Olympus inverted microscope processed with Fiji (ImageJ, v 2.0.0) and analyzed using CellProfiler 3.1.9 ([Sanz-Rodriguez et al., 2022]).

[3] = tested on: endocytosis of transferrin (Tf) in Trypanosoma brucei; experiment: Endocytosis of transferrin (flow cytometry); assay type: cell-based; settings: for Effect on endocytosis of Tf / Endocytosis Transferrin: DTC25; for Increase of Tf endocytosis compared to DMSO: DTC25, 6 h, not statistically significant; for Endocytosis Transferrin: Table S3
Protocol: (§1) Cells were washed and resuspended in serum-free medium. Trypanosomes were incubated with fluorescent endocytosis ligands transferrin (Tf) or bovine serum albumin (BSA) for 30 min (37 °C). A flow cytometer was used to detect fluorescence intensity per cell. Propidium iodide (PI) was used to stain and gate out non-viable cells. Histograms present fluorescence intensity of Tf-AF488 (A) or BSA-AF647 (B) for every cell (n > 10,000 for each cargo) in DMSO or drug-treated samples. Points on the scatter plot represent mean fluorescence intensities of Tf (C) or BSA (D) from three biological replicates (calculated with FlowJo). Bars indicate mean ± SD. Student’s t-test was used to evaluate statistical significance of differences in mean intensity of endocytosed ligand in DMSO-treated sample compared to curaxin-treated samples.
Curaxin or DMSO-treated trypanosomes (5 × 10^5/mL) were washed with serum-free HMI-9 medium (500 uL). Trypanosomes were resuspended in serum-free HMI-9 medium (100 μL) supplemented with either transferrin–[…] conjugate (50 μg, Invitrogen, Eugene, OR) or BSA–AlexaFluor647 conjugate (50 μg, Invitrogen, Eugene, OR) for 30 min at 37 °C, 5% CO2. Cells were transferred to an ice-water bath, washed with cold PBS/G at 4 °C (3,000 g for 5 min), resuspended in PBS/G (500 μL) containing propidium iodide (3 μM), and analyzed on a flow cytometer (Beckman Coulter CytoFLEX S). FlowJo software (FlowJo, LLC) was used to gate trypanosomes based on size and shape (forward and side scatter features), and fluorescence intensity of endocytosed protein was measured in viable cells (negative for propidium iodide uptake). FlowJo software was used to determine the mean fluorescence intensity of each cargo in trypanosomes (at least 10,000 events). Data from three independent biological experiments were analyzed with a two-tailed Student’s t-test with unequal variance to determine the possible statistical significance of differences in means of fluorescence intensities of endocytosed cargo.

[4] = tested on: endocytosis of bovine serum albumin (BSA) in Trypanosoma brucei; assay type: cell-based; settings: DTC25; Table S3
Protocol: as §1, with “Student’s t-test was used to evaluate statistical significance of differences in mean intensity of endocytosed ligand in DMSO-treated sample compared to curaxin-treated samples.” left out
Curaxin or DMSO-treated trypanosomes (5 × 10^5/mL) were washed with serum-free HMI-9 medium (500 uL). […] Cells were transferred to an ice-water bath, washed with cold PBS/G at 4 °C (3,000 g for 5 min), resuspended in PBS/G (500 μL) containing propidium iodide (3 μM), and analyzed on a flow cytometer (Beckman Coulter CytoFLEX S). FlowJo software (FlowJo, LLC) was used to gate trypanosomes based on size and shape (forward and side scatter features), and fluorescence intensity of endocytosed protein was measured in viable cells (negative for propidium iodide uptake). FlowJo software was used to determine the mean fluorescence intensity of each cargo in trypanosomes (at least 10,000 events). […]

T. brucei Lister 427 = experiment: Effect of 50% serum on curaxin inhibition of trypanosome proliferation; assay type: cell-based, Trypanosoma brucei; settings: 20, 35 or 50% FBS; Figure S3
Protocol: HMI-9 medium ([Hirumi and Hirumi, 1989]) was prepared with different final concentrations of fetal bovine serum (FBS) (20, 35, and 50%). T. brucei Lister 427 was cultured in each medium for at least 7 days. […] EC50 measurements were obtained from three independent experiments in each medium.
containing 20%, 35% or 50% FBS
At 0 h, 4x103 trypanosomes/ml in
media with drug; 37°C, 5% CO2
Cells lysed and SYBR green
Hirumi, 1989) was modified to contain 20, 35, or 50% fetal bovine serum (FBS) (total
concentration). T. b. brucei Lister 427 was first cultured in the medium for 7 days.
(50 µL). Plates were incubated for 48 h at 37 °C and 5% CO2, and the proliferation of
trypanosomes was measured using a SYBR green assay (Faria et al., 2015). Each experiment
was performed thrice, and non-linear regression fits to the data were obtained using GraphPad
Prism which was used to calculate EC50 values. The possible statistical significance of the
FBS-medium (control) was determined by Student’s T-test.

[5] = Caco-2, pH 7.4, Caco-2, direction A-to-B
[6] = Caco-2, pH 7.4, Caco-2, direction B-to-A

| SMILES | Papp at 120 min, 5 μM [1, 5] | recovery at 120 min, 5 μM [1, 5] | Papp at 120 min, 5 μM [1, 6] | recovery at 120 min, 5 μM [1, 6] | Effect on EdU incorporation into nuclei (DNA synthesis) [2] | DNA Synthesis affected [2] | Fold increase of Tf endocytosis compared to DMSO [3] | Effect on endocytosis of Tf [3] | Increase of Tf endocytosis compared to DMSO [3] | Endocytosis Transferrin [3] | Endocytosis BSA affected [4] | Effect of serum on anti-trypanosome potency (T. brucei Lister 427) |
| --- | --- | --- | --- | --- | --- | --- | --- | --- | --- | --- | --- | --- |
| CC(=O)c1cc2c3cc(C(C)=O)c(O)cc3n(CCCN(C)C)c2cc1O [CBL0174, 1-[6-acetyl-9-[3-(dimethylamino)propyl]-2,7-dihydroxy-carbazol-3-yl]ethanone] | 17.8 ± 0.35 ×10⁻⁶ cm/s | 60% | 21.9 ± 3.39 ×10⁻⁶ cm/s | 86% | inhibited EdU incorporation into nuclei | Yes | 1.39 | did not promote endocytosis of Tf | 39% | Activated | No | – |
| CC(=O)c1cc2c3cc(C(C)=O)c(O)cc3n(CCNC(C)C)c2cc1O [CBL0187, 1-[6-acetyl-2,7-dihydroxy-9-[2-(isopropylamino)ethyl]carbazol-3-yl]ethanone] | 14 ± 1.91 ×10⁻⁶ cm/s | 47% | 21.7 ± 3.39 ×10⁻⁶ cm/s | 64% | inhibited EdU incorporation into nuclei | Yes | 1.31 | had no effect on the pathway | 30.9% | Activated | No | decreases |
